Test results taken from ChEMBL document CHEMBL1201862, “PubChem BioAssay data set” (2004).
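A five-concentration, 48-hour dose response in 96-well plates underlies each endpoint, interpolated linearly between surrounding concentrations. GI50 = concentration required for 50% inhibition of growth.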 The source made the active and inactive calls. Cut-off read from the data, not from the text of the source: active = GI50 up to about 1.1 µM and inactive = higher.

Legend:
Test in all cases: NCI anticancer screen, dose series, 48 h
ACHN = system: ACHN
CCRF-CEM = system: CCRF-CEM
SW-620 = system: SW-620
HOP-92 = system: HOP-92
NCI-H522 = system: NCI-H522
SK-MEL-5 = system: SK-MEL-5
RPMI-8226 = system: RPMI-8226
SF-268 = system: SF-268
UACC-62 = system: UACC-62
OVCAR-4 = system: OVCAR-4
SNB-19 = system: SNB-19
HOP-62 = system: HOP-62
SK-OV-3 = system: SK-OV-3
Hs-578T = system: Hs-578T
UACC-257 = system: UACC-257
A498 = system: A498
HT-29 = system: HT-29
SK-MEL-2 = system: SK-MEL-2
M14 = system: M14
PC-3 = system: PC-3
KM12 = system: KM12
HCC 2998 = system: HCC 2998
OVCAR-5 = system: OVCAR-5
HCT-116 = system: HCT-116
RXF 393 = system: RXF 393
NCI-H226 = system: NCI-H226
Malme-3M = system: Malme-3M
SF-539 = system: SF-539
T47D = system: T47D
NCI-H23 = system: NCI-H23
SK-MEL-28 = system: SK-MEL-28
DU-145 = system: DU-145
SN12C = system: SN12C
HCT-15 = system: HCT-15
HL-60 = system: HL-60
MOLT-4 = system: MOLT-4
COLO 205 = system: COLO 205
LOX IMVI = system: LOX IMVI
U-251 = system: U-251
CAKI-1 = system: CAKI-1
SF-295 = system: SF-295
MCF7 = system: MCF7
OVCAR-3 = system: OVCAR-3
NCI/ADR-RES = system: NCI/ADR-RES
MDA-N = system: MDA-N
A549 = system: A549
TK-10 = system: TK-10
786-0 = system: 786-0
IGROV-1 = system: IGROV-1
SR = system: SR
EKVX = system: EKVX
MDA-MB-435 = system: MDA-MB-435
NCI-H460 = system: NCI-H460
UO-31 = system: UO-31
K562 = system: K562
OVCAR-8 = system: OVCAR-8
MDA-MB-231 = system: MDA-MB-231
SNB-75 = system: SNB-75

For `NC(=O)c1cc(N(CCO)CCO)c([N+](=O)[O-])cc1[N+](=O)[O-]`, the GI50 (ACHN) was > 100 µM (inactive), the GI50 (CCRF-CEM) was > 100 µM (inactive) and the GI50 (SW-620) was > 100 µM (inactive). The GI50 (HOP-92) was > 100 µM (inactive), the GI50 (NCI-H522) was > 100 µM (inactive) and the GI50 (SK-MEL-5) was > 100 µM (inactive). For the same molecule, the GI50 (RPMI-8226) was > 100 µM (inactive), the GI50 (SF-268) was > 100 µM (inactive) and the GI50 (UACC-62) was > 100 µM (inactive). The GI50 (OVCAR-4) was > 100 µM (inactive), the GI50 (SNB-19) was > 100 µM (inactive) and the GI50 (HOP-62) was > 100 µM (inactive). For the same molecule, the GI50 (SK-OV-3) was > 100 µM (inactive), the GI50 (Hs-578T) was > 100 µM (inactive) and the GI50 (UACC-257) was > 100 µM (inactive). The GI50 (A498) was > 100 µM (inactive), the GI50 (HT-29) was > 100 µM (inactive) and the GI50 (SK-MEL-2) was > 100 µM (inactive). The GI50 (M14) was > 100 µM (inactive), the GI50 (PC-3) was > 100 µM (inactive) and the GI50 (KM12) was > 100 µM (inactive). The GI50 (HCC 2998) was > 100 µM (inactive), the GI50 (OVCAR-5) was > 100 µM (inactive) and the GI50 (HCT-116) was > 100 µM (inactive). The GI50 (RXF 393) was > 100 µM (inactive), the GI50 (NCI-H226) was > 100 µM (inactive) and the GI50 (Malme-3M) was > 100 µM (inactive). For the same molecule, the GI50 (SF-539) was > 100 µM (inactive), the GI50 (T47D) was > 100 µM (inactive) and the GI50 (NCI-H23) was > 100 µM (inactive). For the same molecule, the GI50 (SK-MEL-28) was > 100 µM (inactive), the GI50 (DU-145) was > 100 µM (inactive) and the GI50 (SN12C) was > 100 µM (inactive). The GI50 (HCT-15) was over 100 µM, the GI50 (HL-60) was > 100 µM (inactive) and the GI50 (MOLT-4) was > 100 µM (inactive). The GI50 (COLO 205) was > 100 µM (inactive), the GI50 (LOX IMVI) was > 100 µM (inactive) and the GI50 (U-251) was > 100 µM (inactive). For the same molecule, the GI50 (CAKI-1) was > 100 µM (inactive), the GI50 (SF-295) was > 100 µM (inactive) and the GI50 (MCF7) was > 100 µM (inactive). The GI50 (OVCAR-3) was > 100 µM (inactive), the GI50 (NCI/ADR-RES) was > 100 µM (inactive) and the GI50 (MDA-N) was > 100 µM (inactive). For the same molecule, the GI50 (A549) was > 100 µM (inactive), the GI50 (TK-10) was > 100 µM (inactive) and the GI50 (786-0) was > 100 µM (inactive). For the same molecule, the GI50 (IGROV-1) was > 100 µM (inactive), the GI50 (SR) was > 100 µM (inactive) and the GI50 (EKVX) was > 100 µM (inactive). The GI50 (MDA-MB-435) was > 100 µM (inactive), the GI50 (NCI-H460) was > 100 µM (inactive) and the GI50 (UO-31) was > 100 µM (inactive). For the same molecule, the GI50 (K562) was > 100 µM (inactive).
For `C=CCC(CC=O)(C(=O)OCC)C(=O)OCC`, the GI50 (ACHN) was > 100 µM (inactive), the GI50 (CCRF-CEM) was > 100 µM (inactive) and the GI50 (OVCAR-8) was > 100 µM (inactive). The GI50 (SW-620) was > 100 µM (inactive), the GI50 (HOP-92) was > 100 µM (inactive) and the GI50 (NCI-H522) was > 100 µM (inactive). For the same molecule, the GI50 (SK-MEL-5) was > 100 µM (inactive), the GI50 (RPMI-8226) was > 100 µM (inactive) and the GI50 (SF-268) was > 100 µM (inactive). The GI50 (UACC-62) was > 100 µM (inactive), the GI50 (OVCAR-4) was > 100 µM (inactive) and the GI50 (SNB-19) was > 100 µM (inactive). The GI50 (HOP-62) was > 100 µM (inactive), the GI50 (SK-OV-3) was > 100 µM (inactive) and the GI50 (Hs-578T) was > 100 µM (inactive). The GI50 (UACC-257) was > 100 µM (inactive), the GI50 (A498) was > 100 µM (inactive) and the GI50 (HT-29) was > 100 µM (inactive). The GI50 (SK-MEL-2) was > 100 µM (inactive), the GI50 (M14) was > 100 µM (inactive) and the GI50 (PC-3) was > 100 µM (inactive). The GI50 (KM12) was > 100 µM (inactive), the GI50 (OVCAR-5) was > 100 µM (inactive) and the GI50 (HCT-116) was > 100 µM (inactive). The GI50 (RXF 393) was > 100 µM (inactive), the GI50 (NCI-H226) was > 100 µM (inactive) and the GI50 (Malme-3M) was > 100 µM (inactive). The GI50 (SF-539) was > 100 µM (inactive), the GI50 (NCI-H23) was > 100 µM (inactive) and the GI50 (SK-MEL-28) was > 100 µM (inactive). For the same molecule, the GI50 (DU-145) was > 100 µM (inactive), the GI50 (MDA-MB-231) was > 100 µM (inactive) and the GI50 (SN12C) was > 100 µM (inactive). The GI50 (HCT-15) was over 100 µM, the GI50 (HL-60) was 86.1 µM (inactive) and the GI50 (MOLT-4) was > 100 µM (inactive). The GI50 (COLO 205) was > 100 µM (inactive), the GI50 (LOX IMVI) was > 100 µM (inactive) and the GI50 (U-251) was > 100 µM (inactive). For the same molecule, the GI50 (CAKI-1) was > 100 µM (inactive), the GI50 (SF-295) was > 100 µM (inactive) and the GI50 (MCF7) was > 100 µM (inactive). For the same molecule, the GI50 (OVCAR-3) was > 100 µM (inactive), the GI50 (NCI/ADR-RES) was > 100 µM (inactive) and the GI50 (MDA-N) was > 100 µM (inactive). For the same molecule, the GI50 (A549) was > 100 µM (inactive), the GI50 (TK-10) was > 100 µM (inactive) and the GI50 (786-0) was > 100 µM (inactive). For the same molecule, the GI50 (IGROV-1) was > 100 µM (inactive), the GI50 (SR) was > 100 µM (inactive) and the GI50 (EKVX) was > 100 µM (inactive). The GI50 (MDA-MB-435) was > 100 µM (inactive), the GI50 (NCI-H460) was > 100 µM (inactive) and the GI50 (UO-31) was 76.2 µM (inactive). The GI50 (K562) was > 100 µM (inactive) and the GI50 (SNB-75) was > 100 µM (inactive).
